The source of these data is publication PMC10967270, “Intrapulmonary and Systemic Pharmacokinetics of Colistin Following Nebulization of Low-Dose Colistimethate Sodium in Patients with Ventilator-Associated Pneumonia Caused by Carbapenem-Resistant Acinetobacter baumannii” (Antibiotics, 2024).

In this test the test system is ventilator-associated pneumonia caused by carbapenem-resistant Acinetobacter baumannii. In words: Clinical and microbiological outcomes of CMS nebulization. As to conditions: of 20 patients. The test is classed as in vivo. As for the experimental part:
Patients were treated with CMS (Xellia Pharmaceuticals ApS, Copenhagen, Denmark) at a total of 3.75 MIU (equivalent to 300 mg of CMS or 112.5 mg of CBA) administered four times a day at 6 h intervals. CMS was dissolved in 5 mL of normal saline and administered over 30 min through a jet nebulizer (Sileo 54, Macjin Medical, Seoul, Republic of Korea) connected to the ventilator circuit. Bronchoalveolar lavage fluid (BALF) was obtained by instilling 20 mL of normal saline into the right middle lobe or left lingular segmental bronchus using a bronchoscope, followed by immediate aspiration and collection into a syringe. Samples were collected immediately before the nebulization treatment and at 1, 3, and 5 h after the start of the treatment. Blood samples were collected before the nebulization treatment and at 1, 2, 3, and 5 h thereafter. Both BALF and blood samples were centrifuged at 3000× g for 10 min within 1 h of collection and the supernatant was isolated. Samples were then stored in a refrigerator at a temperature below −70 °C.
Clinical outcomes were classified as cured (resolution of symptoms/signs of pneumonia plus improvement or lack of progression in radiologic pulmonary infiltrates, and antibiotics-free), improved (significant improvement of symptoms/signs of pneumonia plus improvement or lack of progression in radiologic abnormalities, but remaining on antibiotic treatment), and failed (persistent or worsening of symptoms/signs of pneumonia, persistent or progression of radiologic pulmonary infiltrates that required additional antibiotic therapy, or death).

As to Colistimethate sodium [CMS], under “nebulized CMS 3.75 MIU/day”, the “Clinical outcomes: failed, number of patients” value came to 4; the “Microbiologic outcomes: eradication, number of patients” value is on record as 8; the “Microbiologic outcomes: indeterminate, number of patients” value was 2; the “Microbiologic outcomes: persistence, number of patients” value was found to be 10. Besides, where the note is “nebulized CMS 3.75 MIU/day”, the “Survival: no, number of patients” value came out at 15 and the “Survival: yes, number of patients” value turned out to be 5. For the same substance, for the setting “nebulized CMS 3.75 MIU/day in four doses at 6 h intervals”, the “Clinical outcomes: cured, number of patients” value is 16.
